Assay results: article PMC9532951, “Identification and characterization of a novel SNAT2 (SLC38A2) inhibitor reveals synergy with glucose transport inhibition in cancer cells” (Frontiers in Pharmacology, 2022)
“And” between values parts separate entries of the source, which are not always exact repeats. Equal values may be shown once.

What was measured:
SNAT1 = molecular target: T1, SNAT1 (Homo sapiens, UniProt Q9H2H9); experiment: Alanine uptake in HCC1806 D126 (ASCT2ko, SNAT2ko) cells; assay type: cell-based; conditions: for Alanine uptake (nmol / mg protein x 6 min): Figure 4B, replicates 1-3; for inhibition of alanine uptake: HCC1806 D126, Figure 4B, betaine and MeAIB 10 mM
T1 construct: SNAT1 remained active as indicated by the Na^+-dependence of alanine uptake; endogenous in cells; host or cells: HCC1806 clone D126 (ASCT2ko, SNAT2ko), amino acid depleted for 24 h
T1 sequence (Q9H2H9 1-487): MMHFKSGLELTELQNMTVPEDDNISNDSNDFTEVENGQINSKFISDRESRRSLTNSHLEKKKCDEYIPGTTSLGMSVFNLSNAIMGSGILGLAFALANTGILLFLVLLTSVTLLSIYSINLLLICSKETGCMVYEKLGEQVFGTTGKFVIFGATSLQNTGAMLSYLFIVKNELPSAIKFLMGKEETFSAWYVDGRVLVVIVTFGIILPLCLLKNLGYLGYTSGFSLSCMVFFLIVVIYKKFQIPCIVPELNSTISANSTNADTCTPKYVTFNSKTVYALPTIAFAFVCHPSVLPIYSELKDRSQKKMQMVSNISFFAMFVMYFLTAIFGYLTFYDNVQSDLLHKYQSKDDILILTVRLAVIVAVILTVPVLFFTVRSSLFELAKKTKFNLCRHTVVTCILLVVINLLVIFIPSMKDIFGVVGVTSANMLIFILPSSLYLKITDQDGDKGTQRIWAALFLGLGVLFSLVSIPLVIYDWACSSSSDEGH
Procedure: To delete the SNAT2 (SLC38A2) gene in modified HCC1806 cells (clone C10 nullizygous for ASCT2 ([Broer et al., 2019])), the GeneArt CRISPR Nuclease Vector with OFP Reporter Kit (Invitrogen; A21174) was employed and complementary 19–20 bp long single-stranded oligonucleotides with overhangs were designed to produce a guide RNA (gRNA) for the Cas9 nuclease that would target exon 7 of the SNAT2 gene. Colonies were analysed by sequencing using the U6 primer included in the GeneArt CRISPR Nuclease Vector with OFP Reporter kit. Plasmids that contained the correct CRISPR nuclease construct were then used to transfect HCC1806 cells with Lipofectamine 2000 (Invitrogen). Prior to transfection, medium was replaced with 2 ml of fresh DMEM/F-12 (supplemented with 10% heat-inactivated FBS and 2 mM glutamine). Plasmid DNA (4 µg) and 10 µL of Lipofectamine 2000 were incubated separately for 5 min at room temperature in 500 µl of Opti-MEM (Invitrogen) before being combined and incubated for a further 30 min at room temperature. The DNA-Lipofectamine complex was then added to the cells in a dropwise manner and allowed to be absorbed over 6 h at 37°C, after which the medium was renewed with fresh DMEM/F-12. Cells were checked for red fluorescence using an EVOS FL cell imaging system (Thermo Fisher Scientific) 48–72 h post transfection. Subsequently, cells were detached using 0.25% Trypsin EDTA. After harvesting and washing thrice with PBS (pH 7.4), cells were resuspended in PBS (pH 7.4) supplemented with 5 mM glucose and 1% dialysed and heat inactivated FBS and passed through a 100 μm cell strainer. The cell filtrate was then pelleted once more and resuspended in the same buffer. Cells were sorted using an ARIA II FACS machine and individually dispensed into the wells of a 96-well plate. Nullizygous clones were identified using a series of assays including the FLIPR membrane potential assay, western blotting and sequencing.
Functional characterisation of plasma membrane transporters in human cancer cells was determined at 37°C using an array of radiolabelled amino acid substrates. Modified Hanks HEPES-buffered salts solution (mHBSS; 137 mM NaCl; 5.4 mM KCl; 2.7 mM K2HPO4; 1 mM CaCl2; 0.5 mM MgCl2; 0.44 mM KH2PO4; 0.4 mM MgSO4; 5 mM D-glucose; 5 mM HEPES; pH 7.4) was used to wash and incubate cells where sodium dependent transport was measured, while N-methyl-D-glucamine (NMDG) and potassium salts substituted sodium in NMDG mHBSS to measure sodium independent uptake. For the assay, cells were seeded in 35 mm dishes and, once confluent, were washed thrice with warm mHBSS solution and incubated with mHBSS containing an 100 µM amino acid at a final specific activity of ≥2000 cpm/nmol (U-[^14C]amino acids were from PerkinElmer). After 6 min, cells were washed thrice with ice-cold mHBSS, lysed with 500 µl of 0.1 M HCl, detached with a cell scraper and triturated. A 400 µl aliquot was used for scintillation counting, while the remainder was saved for protein mass quantification by Bradford assay. Transport rates were normalised to the protein content of the culture dish.

B0AT1 (SLC6A19) = molecular target: T2, B0AT1 (SLC6A19) (Homo sapiens, UniProt Q695T7); experiment: Leucine uptake in CHO cells stably expressing human B0AT1 and collectrin; assay type: cell-based; conditions: 150 µM leucine, hit compounds at 30 µM, n = 3
T2 construct: expressed in transfected cells
T2 sequence (Q695T7 1-634): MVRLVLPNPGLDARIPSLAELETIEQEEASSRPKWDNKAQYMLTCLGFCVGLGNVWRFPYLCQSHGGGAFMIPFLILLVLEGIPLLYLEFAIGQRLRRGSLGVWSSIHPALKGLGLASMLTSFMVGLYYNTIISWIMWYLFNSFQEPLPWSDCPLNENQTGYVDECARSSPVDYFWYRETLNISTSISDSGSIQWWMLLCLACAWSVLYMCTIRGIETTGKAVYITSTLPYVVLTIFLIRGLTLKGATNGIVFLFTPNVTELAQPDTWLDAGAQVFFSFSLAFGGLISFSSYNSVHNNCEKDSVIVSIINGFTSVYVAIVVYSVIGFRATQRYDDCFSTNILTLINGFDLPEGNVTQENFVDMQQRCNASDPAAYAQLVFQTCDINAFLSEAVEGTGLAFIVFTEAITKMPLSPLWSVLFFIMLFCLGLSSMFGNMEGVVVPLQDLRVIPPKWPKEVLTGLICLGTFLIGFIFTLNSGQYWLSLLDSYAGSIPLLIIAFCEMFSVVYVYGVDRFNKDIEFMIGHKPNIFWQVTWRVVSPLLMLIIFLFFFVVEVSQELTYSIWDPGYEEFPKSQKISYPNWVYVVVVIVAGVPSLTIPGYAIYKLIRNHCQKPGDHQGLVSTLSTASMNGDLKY
T2 sequence (Q9HBJ8 15-222 partner): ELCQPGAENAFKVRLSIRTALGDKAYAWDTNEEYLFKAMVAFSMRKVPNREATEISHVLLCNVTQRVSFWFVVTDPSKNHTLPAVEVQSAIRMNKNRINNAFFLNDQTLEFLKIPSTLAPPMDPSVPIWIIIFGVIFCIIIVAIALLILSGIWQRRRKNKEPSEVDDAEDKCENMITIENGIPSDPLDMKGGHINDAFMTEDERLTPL

| inhibition of alanine uptake (SNAT1) | Leucine uptake, Mean (B0AT1 (SLC6A19)) | SMILES | Alanine uptake (nmol / mg protein x 6 min) (SNAT1; 10mM) | discrimination between SNAT2 and SNAT1 (SNAT1) | Alanine uptake (nmol / mg protein x 6 min) (SNAT1; screening compounds) |
| --- | --- | --- | --- | --- | --- |
| not inhibited |  | C[N+](C)(C)CC(=O)O [Betaine, betaine] | 27.8319 nmol / mg protein x 6 min and 27.8658 nmol / mg protein x 6 min and 25.4928 nmol / mg protein x 6 min |  |  |
| did not inhibit alanine uptake | 55.2874 nmol / mg protein x 6 min | Cc1ccc(S(=O)(=O)N(C)c2ccsc2C(=O)NCc2ccccc2C(F)(F)F)cc1 [Compound 57_E, 3-(N-methyl (4-methylphenyl)sulfonamido)-N-(2-trifluoromethylbenzyl)thiophene-2-carboxamide] |  | discriminated against the close transporter homologue SNAT1 | 28.3148 nmol / mg protein x 6 min and 26.5203 nmol / mg protein x 6 min and 27.3289 nmol / mg protein x 6 min |
